Results on five molecules are retold here after patent US6410250B1 (priority 1996, dated 2002).

“Also recorded” adds a separate entry of the source.

Assay [1] has as its system Starch-elicited peritoneal macrophages. The assay can be described thus: Infection of starch-elicited peritoneal macrophages in vitro. In kind it is cell-based, mouse. To be noted: thymidine 100 μg/ml added to the medium.
Assay [2] in a line: In vivo rescue of dhfr-ts- phenotype with thymidine osmotic pumps. Also noted: species or system mice. To be noted: continuous thymidine supplementation.
Assay [3] deals with draining lymph node cells. In kind it is cell-based, mouse.
The test system of a further assay is L. major. Briefly: Growth of L. major promastigotes in liquid medium with drug. Format: cell-based, Leishmania major.

Turning to `Cc1cn([C@H]2C[C@H](O)[C@@H](CO)O2)c(=O)[nH]c1=O` [thymidine], the “effect of thymidine on dhfr-ts^− in macrophages” value in assay [1] is “restored both survival and replication”. Also, the “restoration of animal infectivity of dhfr-ts^− by thymidine supplementation” value in assay [2] was “partially restored; also recorded: partially restore infectivity”.
Regarding bacillus Calmette-Guerin, the “proliferation as [3H]thymidine incorporation” value in assay [3] worked out at 1100±1000 cpm.
For `CN(Cc1cnc2nc(N)nc(N)c2n1)c1ccc(C(=O)N[C@@H](CCC(=O)O)C(=O)O)cc1` [MTX, methotrexate], the EC50 with L. major (Leishmania major, wild-type or heterozygous (+/HYG) cells, liquid media, read-out: concentration of MTX required to inhibit cell growth by 50% (EC50)) is around 1000 nM. In the assay with L. major (dhfr-ts^− NEO/HYG knockout, 100 μM MTX, liquid media), the “growth in presence of MTX” value is given as “grew well”.
Take `CN[C@H]1C[C@@H](N)[C@H](O)[C@@H](O[C@@H]2O[C@H](CO)[C@H](O)[C@@H]3OC4(O[C@H]23)O[C@H]([C@@H](N)CO)[C@H](O)[C@H](O)[C@H]4O)[C@@H]1O` (stereo partly shown) [hygromycin B]: in the assay on L. major (+/HYG line), the “hygromycin B concentration resulting in a 50% reduction in growth” value is listed as 200 μg per ml.

B1: ovalbumin (protein, UniProt P01012 2-386, looked up)
Ovalbumin: GSIGAASMEFCFDVFKELKVHHANENIFYCPIAIMSALAMVYLGAKDSTRTQINKVVRFDKLPGFGDSIEAQCGTSVNVHSSLRDILNQITKPNDVYSFSLASRLYAEERYPILPEYLQCVKELYRGGLEPINFQTAADQARELINSWVESQTNGIIRNVLQPSSVDSQTAMVLVNAIVFKGLWEKAFKDEDTQAMPFRVTEQESKPVQMMYQIGLFRVASMASEKMKILELPFASGTMSMLVLLPDEVSGLEQLESIINFEKLTEWTSSNVMEERKIKVYLPRMKMEEKYNLTSVLMAMGITDVFSSSANLSGISSAESLKISQAVHAAHAEINEAGREVVGSAEAGVDAASVSEEFRADHPFLFCIKHIATNAVLFFGRCVSP
notes: antigen preparation used as specificity control in lymph node proliferation assay
As for B1, the “proliferation as [3H]thymidine incorporation” value in assay [3] came out at 2600±1100 cpm.
